Assays:
[1] = system: Phytophthora infestans; assay: whole plant or invertebrate; type: in vivo; settings: in Solanum lycopersicum, foliar, read-out: control of Phytophthora infestans (percent disease control compared to untreated)
[2] = system: Blumeria graminis f. sp. tritici (Erysiphe graminis f. sp. tritici); assay: Blumeria graminis f. sp. tritici / wheat / leaf disc preventative (powdery mildew on wheat); type: in vivo; settings: foliar, wheat leaf segments cv. Kanzler, inoculated 1 day after application, assessed 6-8 days after application, read-out: control of Blumeria graminis (percent disease control compared to untreated)
Protocol: Blumeria Graminis f. Sp. Tritici (Erysiphe Graminis f. Sp. Tritici)/Wheat/Leaf Disc Preventative (Powdery Mildew on Wheat):
Wheat leaf segments cv. Kanzler were placed on agar in a 24-well plate and sprayed with the formulated test compound diluted in water at an application rate of 200 ppm. The leaf disks were inoculated by shaking powdery mildew infected plants above the test plates 1 day after application. The inoculated leaf disks were incubated at 20° C. and 60% relative humidity under a light regime of 24 h darkness followed by 12 h/12 h (dark/light) in a climate chamber and the activity of a compound was assessed as percent disease control compared to untreated when an appropriate level of disease damage appears on untreated check leaf segments (6-8 days after application). The following compounds gave at least 80% control of Blumeria graminis: […]

[3] = system: Puccinia recondita f. sp. tritici; assay: Puccinia recondita f. sp. tritici / wheat / leaf disc preventative (brown rust); type: in vivo; settings: foliar, wheat leaf segments cv Kanzler, inoculated 1 day after application, assessed 7-9 days after application, read-out: control of Puccinia recondita f. sp. tritici, preventative (percent disease control compared to untreated)
Protocol: Puccinia Recondita f. Sp. Tritici/Wheat/Leaf Disc Preventative (Brown Rust): Wheat leaf segments cultivated variety (cv) Kanzler were placed on agar in 24-well plates and sprayed with formulated test compound diluted in water at an application rate of 200 ppm. The leaf disks were inoculated with a spore suspension of the fungus 1 day after application. The inoculated leaf segments were incubated at 19° C. and 75% relative humidity under a light regime of 12/12 h (light/dark) in a climate cabinet and the activity of a compound was assessed as percent disease control compared to untreated when an appropriate level of disease damage appears in untreated check leaf segments (7-9 days after application).

[4] = system: Magnaporthe grisea (Pyricularia oryzae); assay: whole plant or invertebrate; type: in vivo; settings: foliar, read-out: control of Magnaporthe grisea (percent disease control compared to untreated)
[5] = system: Phaeosphaeria nodorum (Septoria nodorum); assay: Phaeosphaeria nodorum (Septoria nodorum) / wheat / leaf disc preventative (glume blotch); type: in vivo; settings: Parastagonospora nodorum, foliar, wheat leaf segments cv Kanzler, inoculated 2 days after application, assessed 5-7 days after application, read-out: control of Phaeosphaeria nodorum (percent disease control compared to untreated)
Protocol: Phaeosphaeria Nodorum (Septoria nodorum)/Wheat/Leaf Disc Preventative (Glume Blotch): Wheat leaf segments cv Kanzler were placed on agar in a 24-well plate and sprayed with formulated test compound diluted in water at an application rate of 200 ppm. The leaf disks are inoculated with a spore suspension of the fungus 2 days after application. The inoculated test leaf disks are incubated at 20° C. and 75% relative humidity under a light regime of 12/12 h (light/dark) in a climate cabinet and the activity of a compound is assessed as percent disease control compared to untreated when an appropriate level of disease damage appears in untreated check leaf disks (5-7 days after application).

[6] = system: Pyrenophora teres; assay: Pyrenophora teres / barley / leaf disc preventative (net blotch); type: in vivo; settings: foliar, barley leaf segments cv Hasso, inoculated two days after application, assessed 5-7 days after application, read-out: control of Pyrenophora teres (disease control compared to untreated)
Protocol: Pyrenophora Teres/Barley/Leaf Disc Preventative (Net Blotch): Barley leaf segments cv Hasso are placed on agar in a 24-well plate and sprayed with formulated test compound diluted in water at an application rate of 200 ppm. The leaf segments are inoculated with a spore suspension of the fungus two days after application of the test solution. The inoculated leaf segments are incubated at 20° C. and 65% relative humidity under a light regime of 12/12 h (light/dark) in a climate cabinet and the activity of a compound is assessed as disease control compared to untreated when an appropriate level of disease damage appears in untreated check leaf segments (5-7 days after application).

[7] = system: Pythium ultimum; assay: Pythium ultimum / liquid culture (seedling damping off); type: cell-based; settings: Globisporangium ultimum, PDB potato dextrose broth, 24° C., 2-3 days after application, read-out: control of Pythium ultimum (inhibition of growth, photometrically)
Protocol: Pythium Ultimum/Liquid Culture (Seedling Damping Off): Mycelia fragments and oospores of a newly grown liquid culture of the fungus were directly mixed into nutrient broth (PDB potato dextrose broth). After placing a DMSO solution of test compound into a 96 well microtiter plate at an application rate 200 ppm, the nutrient broth containing the fungal mycelia/spore mixture was added. The test plates were incubated at 24° C. and the inhibition of growth was determined photometrically 2-3 days after application.

[8] = system: Botryotinia fuckeliana (Botrytis cinerea); assay: Botryotinia fuckeliana (Botrytis cinerea) / liquid culture (gray mould); type: cell-based; settings: Vogels broth, 24° C., 3-4 days after application, read-out: control of Botryotinia fuckeliana (inhibition of growth, photometrically)
Protocol: Botryotinia Fuckeliana (Botrytis cinerea)/Liquid Culture (Gray Mould): Conidia of the fungus from cryogenic storage were directly mixed into nutrient broth (Vogels broth). After placing a DMSO solution of test compound into a 96-well microtiter plate at an application rate 200 ppm, the nutrient broth containing the fungal spores was added. The test plates were incubated at 24° C. and the inhibition of growth was determined photometrically 3-4 days after application.

[9] = system: Thanatephorus cucumeris (Rhizoctonia solani); assay: Thanatephorus cucumeris (Rhizoctonia solani) / liquid culture (foot rot, damping-off); type: cell-based; settings: PDB potato dextrose broth, 24° C., 3-4 days after application, read-out: control of Thanatephorus cucumeris (inhibition of growth, photometrically)
Protocol: Thanatephorus Cucumeris (Rhizoctonia solani)/Liquid Culture (Foot Rot, Damping-Off): Mycelia fragments of a newly grown liquid culture of the fungus are directly mixed into nutrient broth (PDB potato dextrose broth). After placing a DMSO solution of the test compounds into a 96-well microtiter plate at an application rate 200 ppm, the nutrient broth containing the fungal material was added. The test plates were incubated at 24° C. and the inhibition of growth was determined photometrically 3-4 days after application.

[10] = system: Sclerotinia sclerotiorum; assay: Sclerotinia sclerotiorum / liquid culture (cottony rot); type: cell-based; settings: PDB potato dextrose broth, 24° C., 3-4 days after application, read-out: control of Sclerotinia sclerotiorum (inhibition of growth, photometrically)
Protocol: Sclerotinia Sclerotiorum/Liquid Culture (Cottony Rot) Mycelia fragments of a newly grown liquid culture of the fungus are directly mixed into nutrient broth (PDB potato dextrose broth). After placing a (DMSO) solution of test compound into a microtiter plate at an application rate 200 ppm (96-well format) the nutrient broth containing the fungal material is added. The test plates are incubated at 24° C. and the inhibition of growth is determined photometrically 3-4 days after application.

[11] = system: Plasmopara viticola; assay: whole plant or invertebrate; type: in vivo; settings: foliar, read-out: control of Plasmopara viticola (percent disease control compared to untreated)
[12] = system: Puccinia recondita f. sp. tritici; assay: Puccinia recondita f. sp. tritici / wheat / leaf disc curative (brown rust); type: in vivo; settings: foliar, 200 ppm applied 1 day after inoculation, wheat leaf segments cv Kanzler, assessed 6-8 days after application, read-out: control of Puccinia recondita f. sp. tritici, curative (percent disease control compared to untreated)
Protocol: Puccinia Recondita f. Sp. Tritici/Wheat/Leaf Disc Curative (Brown Rust): Wheat leaf segments cv Kanzler were placed on agar in 24-well plates. The leaf segments were inoculated with a spore suspension of the fungus. The plates were stored in darkness at 19° C. and 75% relative humidity. The formulated test compound diluted in water was applied at an application rate of 200 ppm 1 day after inoculation.

[13] = system: Alternaria solani; assay: Alternaria solani / tomato / leaf disc (early blight); type: in vivo; settings: foliar, tomato leaf disks cv. Baby, inoculated 2 days after application, assessed 5-7 days after application, read-out: control of Alternaria solani (percent disease control compared to untreated)
Protocol: Alternaria Solani/Tomato/Leaf Disc (Early Blight): Tomato leaf disks cv. Baby are placed on agar in multiwell plates (24-well format) and sprayed with the formulated test compound diluted in water at an application rate of 200 ppm. The leaf disks are inoculated with a spore suspension of the fungus 2 days after application. The inoculated leaf disks are incubated at 23° C./21° C.

c1c2c(nc3c1CCC/C3=N\OCCCO/N=C1\CCCc3cc4c(nc31)CCCC4)CCCC2 [P.51]
≥ 80%: pest or weed control at 200 ppm [1] | pest or weed control at 200 ppm [2] | pest or weed control at 200 ppm [3] | pest or weed control at 200 ppm [4] | pest or weed control at 200 ppm [5] | pest or weed control at 200 ppm [6] | inhibition at 200 ppm [7] | inhibition at 200 ppm [8] | inhibition at 200 ppm [9] | inhibition at 200 ppm [10]

Cc1ccc2c(n1)/C(=N/OCCCO/N=C1\CCCc3c1nc1ccccc1c3C)CCC2 [P.37]
≥ 80%: pest or weed control at 200 ppm [11] | pest or weed control at 200 ppm [2] | pest or weed control at 200 ppm [3] | pest or weed control at 200 ppm [12] | pest or weed control at 200 ppm [4] | pest or weed control at 200 ppm [5] | pest or weed control at 200 ppm [6] | pest or weed control at 200 ppm [13] | inhibition at 200 ppm [7] | inhibition at 200 ppm [8] | inhibition at 200 ppm [9] | inhibition at 200 ppm [10]

c1c2c(nc3c1CCC/C3=N\OCC1(CO/N=C3\CCCc4cc5c(nc43)CCCC5)CC1)CCCC2 [P.49]
≥ 80%: pest or weed control at 200 ppm [1] | pest or weed control at 200 ppm [2] | pest or weed control at 200 ppm [3] | pest or weed control at 200 ppm [4] | pest or weed control at 200 ppm [5] | inhibition at 200 ppm [8] | inhibition at 200 ppm [9] | inhibition at 200 ppm [10]

Cc1ccc2c(n1)/C(=N/OCCCO/N=C1\CCCc3c(C(F)F)cc(C)nc31)CCC2 [P.46]
≥ 80%: pest or weed control at 200 ppm [2] | pest or weed control at 200 ppm [3] | pest or weed control at 200 ppm [12] | pest or weed control at 200 ppm [4] | pest or weed control at 200 ppm [5] | pest or weed control at 200 ppm [6] | inhibition at 200 ppm [7] | inhibition at 200 ppm [8] | inhibition at 200 ppm [10]

Cc1ccc2c(n1)/C(=N/OCCCO/N=C1\CCCc3c(C)cc(C)nc31)CCC2 [P.30]
≥ 80%: pest or weed control at 200 ppm [1] | pest or weed control at 200 ppm [11] | pest or weed control at 200 ppm [2] | pest or weed control at 200 ppm [3] | pest or weed control at 200 ppm [12] | pest or weed control at 200 ppm [4] | pest or weed control at 200 ppm [5] | pest or weed control at 200 ppm [6] | pest or weed control at 200 ppm [13] | inhibition at 200 ppm [7] | inhibition at 200 ppm [8] | inhibition at 200 ppm [9]

Cc1ccc2c(n1)/C(=N/OCC(C)(C)CO/N=C1\CCCc3cc4c(nc31)CCCC4)CCC2 [P.40]
≥ 80%: pest or weed control at 200 ppm [1] | pest or weed control at 200 ppm [11] | pest or weed control at 200 ppm [2] | pest or weed control at 200 ppm [3] | pest or weed control at 200 ppm [12] | pest or weed control at 200 ppm [4] | pest or weed control at 200 ppm [5] | pest or weed control at 200 ppm [6] | pest or weed control at 200 ppm [13] | inhibition at 200 ppm [7] | inhibition at 200 ppm [8] | inhibition at 200 ppm [9] | inhibition at 200 ppm [10]

Cc1ccc2c(n1)/C(=N/OCC(C)(C)CO/N=C1\CCCc3c(CF)cc(C)nc31)CCC2 [P.44]
≥ 80%: pest or weed control at 200 ppm [2] | pest or weed control at 200 ppm [3] | pest or weed control at 200 ppm [12] | pest or weed control at 200 ppm [4] | pest or weed control at 200 ppm [5] | pest or weed control at 200 ppm [6] | inhibition at 200 ppm [7] | inhibition at 200 ppm [8] | inhibition at 200 ppm [10]

CCC(CO/N=C1\CCCc2ccc(C)nc21)CO/N=C1\CCCc2ccc(C)nc21 [P.10]
≥ 80%: pest or weed control at 200 ppm [1] | pest or weed control at 200 ppm [11] | pest or weed control at 200 ppm [2] | pest or weed control at 200 ppm [3] | pest or weed control at 200 ppm [12] | pest or weed control at 200 ppm [5] | pest or weed control at 200 ppm [6] | pest or weed control at 200 ppm [13] | inhibition at 200 ppm [7] | inhibition at 200 ppm [8]
